{"source": "patent US20040106135A1", "about": "“Assay for PPAR ligand dependent gene modulation” (priority 2002, published 2004)", "key": {"[1]": {"system": "hamster PDK-4 mRNA in kidney", "test": "PDK-4 mRNA induction in kidney of fat-fed hamsters", "format": "in vivo", "settings": "single dose (GW9578 3 mg/kg, fenofibrate 100 mg/kg, gemfibrozil 500 mg/kg), 16 hours", "description": "FIG. 4B is a bar graphs depicting the induction of PDK-4 mRNA in hamster kidney by PPARα ligands. […] After 16 hours, the tissues were harvested, total RNA isolated and levels of hamster PDK-4 mRNA were detected by RT-PCR. The values are normalized to 18S rRNA levels. The mean and SEM of three individual animals are shown.\nPDK-4 plays a critical role in regulating glucose metabolism by phosphorylating and inactivating the pyruvate dehydrogenase complex in response to increased fatty acid oxidation. […] To investigate the response of PDK-4 to fibrate treatment in vivo, in another aspect of the present invention the fat-fed hamster model was employed, which closely mimics the serum lipid profiles of humans than other rodent models (Sullivan et al., (1993) Lab. Anim. Sci. 43:575-578). […] These doses were previously shown to yield maximal effects on blood triglycerides in hamster. […] In hamster kidney, the basal levels of PDK-4 mRNA were approximately 10-fold higher than in the liver (FIG. 4B). […] Fibrates are effective treatments for lowering serum triglyceride levels. To verify that the doses used in this study were efficacious, blood triglyceride levels were monitored over a 48 hour time course.\nReal-time PCR: Fluorescence-based real-time PCR was performed essentially as described (Abbaszade et al., (1999) J. Biol. Chem. 274:23443-23450). […] Taqman-based real-time PCR expression profiling was performed using 25 ng of each cDNA according to the manufacturer's (PE Biosystems) instructions with fluorescence being monitored in real-time with an ABI Prism 7700 (PE Biosystems). Relative expression levels were determined essentially as described (Gibson et al., (1996) Genome Res. 6:995-1001) using standard curves for each transcript. Relative abundance was then determined from these standard curves, subtracting mRNA levels obtained from negative control reactions performed in the absence of reverse transcriptase, and normalized to 18S rRNA levels. […]"}, "[2]": {"test": "Serum triglyceride levels in fat-fed hamsters", "format": "in vivo, hamster", "description": "Blood was sampled at 8, 16 and 48 hours following a single drug treatment for total triglyceride analysis. The mean levels (+/−SEM) for 3 animals per group are shown. The “*” indicates a statistically significant difference with respect to control (p<0.01) by Student's t-test. Animal studies: All procedures performed in this study were approved by the Animal Care and Use committee, and conform to the guide for the Care and Use of Laboratory Animals Act. Male Syrian Golden hamsters (Charles River, Wilmington Mass.) weighing 120-140 g, were used in the study. Animals were kept on a 12-hour light/dark cycle and allowed free access to normal chow and water. The animals were divided into groups according to weight, and fed either an high fat diet (0.5% cholesterol, 5% coconut oil) (N=3) or normal chow diet (N=3). […] At intervals of 0, 8, 16 and 48 hr animals were anesthetized with CO2. Blood was collected by cardiac puncture into EDTA containing tubes; plasma was isolated for immediate analysis of triglycerides by the Dade Clinical Analyser®. Animals were then euthanized with CO2. The liver and kidneys were collected, flash frozen in liquid nitrogen and stored at −80° C. for future gene expression analysis."}}, "note": "Marks after values point to notes of the source that are not given here.", "data": [{"compound": "CCCCCCCN(CCc1ccc(SC(C)(C)C(=O)O)cc1)C(=O)Nc1ccc(F)cc1F", "note": "[GW9578, ureido-thioisobutyric acid]", "values": [{"measurement": "Induction of PDK-4 mRNA in kidney", "setting": "[1]", "result": 7, "unit": "fold"}, {"measurement": "Change of triglyceride levels compared with the control group", "setting": "[2]; single dose, 8, 16 and 48 hours", "result": "significantly decreased"}, {"measurement": "Serum triglyceride levels, 48 h", "setting": "[2]; single dose, mean +/- SEM, 3 animals, control 208.67", "result": "104.67 + 12.02*"}, {"measurement": "Serum triglyceride levels, 8 h", "setting": "[2]; single dose, mean +/- SEM, 3 animals, control 261.33", "result": "106.00 + 46.22*"}, {"measurement": "Serum triglyceride levels, 16 h", "setting": "[2]; single dose, mean +/- SEM, 3 animals, control 308.00", "result": "142.33 + 51.31*"}]}]}
